Reference: patent US20250152494A1, “COSMETIC COMPOSITION CONTAINING RETINOID, EXTRACT OF CENTELLA ASIATICA AND A DIPEPTIDE” (THE BOOTS COMPANY PLC, priority 2022, published 2025)

System: IL-6
Test: Retinol (Inumax)-induced IL-6 production in primary adult human dermal fibroblast cells
Format: cell-based
Details: lower effective retinoid concentrations (lower than 0.5% by weight of the composition)
Experimental: Primary adult human dermal fibroblast cells were incubated with 0.1% microencapsulated retinol commercially available and sold y Evonik under the trade name Inumax. Inumax was diluted in cell culture media to a final concentration of 0.1% and the dilution was used as an inflammatory reaction control. The anti-inflammatory activity of Bisabolol and Centella asiatica was compared in comparison to the control by incubating adult human dermal fibroblast cells with 0.1% inumax in supernatant in the presence of Bisabolol and Centella asiatica, both in combination with dipeptide, at a range of concentrations. Cells were incubated fro 24 hours at 37 C and 5% CO2, in the presence of the actives. At the end of incubation time the supernatant was removed for IL-6 testing. An MTT (3-(4,5-dimethylthiazol-2-yl)-2,5-diphenyltetrazolium bromide) assay was performed on the treated cells to confirm cell metabolic activity following treatment. The levels of IL-6 in supernatant were determined using the Invitrogen IL-6 assay.

α-bisabolol
reducing the retinol induced IL-6 production and consequential skin sensitivity: beneficial in reducing the retinol induced IL-6 production
